A value given as a limit tells only on which side of the number the result lay.

Compound `O=C(O)CCc1cnoc1-c1ccc(OC(F)(F)F)cc1` yielded a melting point of 116 to 118 °C. The compound `CCCc1c(OC(C(=O)O)c2ccc(OC)cc2)ccc(C(C)=O)c1O` (centres undefined) returned a melting point of 154 to 156 °C. For `O=C(c1ccc(Cl)cc1)c1ccc(OC(F)(F)F)cc1`, the melting point was 74.5 to 75 °C. The value for `Cc1cc(C#N)cc(-c2ccc3c(c2)C(C)(C)OC(=O)N3)c1` was 256 to 258 °C; that for `CC(=O)c1ccc(C=Cc2ccc(C(C)=O)s2)s1` was 248 °C; that for `COc1ccc(C(=C2CCCCC2)c2ccc(OC)cc2)cc1` was 106 to 107 °C.

`CC(=O)Nc1c(C(=O)c2ccccc2)[nH]c2c(Cl)cccc12` had a melting point of 185 to 188 °C. As to `COc1ccc(-c2c(CBr)c3ccc(OC)cc3oc2=O)c(OC(C)=O)c1`, the melting point lay within 132 to 133 °C.

In turn, `CC(=O)C(=O)Nc1ccc(-c2ccc(C(=O)O)c(=O)[nH]2)cc1` had a melting point of more than 280 °C. The value for `OCC1(CO)COC(c2nc(-c3ccccc3)c(-c3ccccc3)n2Cc2ccccc2)OC1` was 186 to 188 °C; that for `O=C(NCC12CC3CC(CC(C3)C1)C2)c1c(Cl)ccc2nc(N3CCC[C@@H]3C(=O)O)ccc12` was 157 to 160 °C; that for `CCS(=O)(=O)NCCCCn1c(C)nc2c(N)nc3ccccc3c21` was 211 to 212 °C.

Regarding `COc1ccc(C[C@H]2Cc3cc(C)cnc3[C@H](C)C2)cc1`, the melting point fell in the range of 218 to 222 °C. The value for `O=C(CCCCCNC(=O)CCc1ccco1)NO` was 127 to 128 °C; that for `CC1CCN(C(=O)Oc2ccc(Oc3ccc(Cl)cc3)cc2)CC1` was 72 to 75 °C; that for `CNC(=O)NS(=O)(=O)c1cc2c(cc1OC)OC(C)(C)C(NC(=O)c1cc(Cl)ccc1OC)C2` (centres undefined) was 248 °C.

Compound `CCN(CC)c1nc(N)nc(-c2ccc(Cl)c(Cl)c2)n1` had a melting point of 201 to 204 °C. The value for `CN(C)c1c(F)c(F)c(F)c(F)c1C(=O)O` was 90 to 100 °C; that for `O=C(O)C1OC(c2ccccc2)=NN1C(=O)CCS` (centres undefined) was 106 to 109 °C; that for `COCCCn1ccc2c3c(c(-c4ccccc4Cl)cc21)C(=O)NC3=O` was 171 to 172 °C. Turning to `Cc1nc2cccc3c(=O)n(CCCCNS(=O)(=O)C(F)(F)F)c(=O)c1n23`, the melting point was 181 to 182 °C.

As for `COc1ccc(N2CCN(Cc3cn(C)c4ncccc34)CC2)cc1`, the melting point is 92 to 94 °C.

`CC(=O)n1c(C(F)(F)F)nc(-c2ccc(S(C)(=O)=O)cc2)c1-c1cc(C)cc(Cl)c1` had a melting point of 257 °C.

With `O=C(CC1COC1)N[C@H]1CC[C@H](CCN2CCN(c3cccc4c3OCO4)CC2)CC1`, the melting point is 190 °C. As for `CS(=O)(=O)OCCC1(c2ccccc2)C=CCC=C1`, the figure is 64 to 65 °C. As for `O=C1N[C@H](c2ccccc2)CSC[C@@H]1N1C(=O)c2ccccc2C1=O`, the figure is 280 to 282 °C; as for `CC(=O)Nc1cccc(C(=O)CN2C=CSC2NC(C)=O)c1` (centres undefined), 224 to 226 °C; as for `COC(=O)c1nc(-c2ccc(Cl)c(OC)c2F)nc(O)c1Cl`, 215 to 217 °C.

Regarding `CCCN(C(C)C)[C@H]1COc2cccc(C(N)=O)c2C1`, the melting point was 121 to 122 °C.

In turn, `COc1ccc2c(c1)NC(=O)C(Cl)(Cl)CC2` came in with a melting point of 148 to 150 °C. The value for `COC(=O)Nc1ccc(-c2cccc(C3=NC(C)(C)Cc4cc(OC)c5c(c43)CC(C)(C)O5)c2)cc1` was 129 to 133 °C; that for `CCOC(=O)N1C(C)=CC(C(=O)OCC)(c2cccc(OCC3CO3)c2)C=C1C` (centres undefined) was 116 °C; that for `COc1cc(O)c2c(=O)c(OC)c(-c3ccc(O)cc3)oc2c1` was 252 to 253 °C. Turning to `CC(C)(C)c1cc(CN)c(O)c(I)n1`, the melting point lay in the range of 162 to 165 °C.

The compound `Cc1cc2cc(OCC(=O)O)c(Cl)c(Cl)c2s1` registered a melting point of 215 to 216 °C. The value for `C=CCNC(=O)c1cc(CCc2cc3c(s2)-n2c(C)nnc2CN=C3c2ccccc2Cl)ccc1CC(=O)Nc1cccc(/C=C/c2nc(C3CCC3)cs2)c1` was 127 to 132 °C. As for `FC(F)(F)Oc1ccc(Nc2nc(Cl)nc(Cl)n2)cc1`, the figure is 119 to 122 °C. Compound `Cc1ccc(O)c(-c2cc3ccccn3n2)c1` displayed a melting point of 108 °C.

The compound `COc1ccc2c(c1O)C13CCN(C)C(C2)C1CC(C)C(=O)C3` (centres undefined) gave a melting point of 166 to 167 °C.

As to `CCCCSC(=S)N1Cc2[nH]c3ccccc3c2CC1C(=O)O` (centres undefined), the melting point lay within 163 to 164 °C.

`NS(=O)(=O)c1ccc(NN=C2C(=O)Nc3cccc(Oc4ccccc4)c32)cc1`: the melting point is more than 250 °C. The value for `Cc1nc(C(=O)NN)c2n1-c1ccc(Cl)cc1C(c1ccccc1F)=NC2` was 235 to 237 °C; that for `CNC(=O)[C@H](Cc1cncn1C)NC(=O)C(Cc1cccc2ccccc12)Cc1cccc2ccccc12` was 250 to 252 °C. As for `O=C1NC(=O)C(Cc2ccc3cc(OCc4ccccc4)ccc3n2)S1` (centres undefined), the figure is 144 to 146 °C. Turning to `CN(CCc1ccccc1)C(=O)Cn1cc(C=Cc2nnn[nH]2)c2cc(OCc3ccccc3)ccc21`, the melting point lay in the range of 203 to 205 °C. As for `CN1CC(CCN2CCN(c3ccccc3Cl)CC2)OC1=O` (centres undefined), the melting point lay within 79.5 to 81.5 °C.

For the compound `COc1cc(OC)c2c3c(C(N)=O)cccc3n(Cc3ccccc3)c2c1`, the melting point was 240 to 243 °C. As for `CC(CCCO)C(c1cc(F)ccc1F)S(=O)(=O)c1ccc(Cl)cc1` (centres undefined), the figure is 67 to 69 °C; as for `COC(=O)c1cn2c(n1)COc1cc(C)c(Cl)cc1-2`, 242 to 246 °C. The value for `Cc1cc(-c2ccc(F)cc2)nc(O)n1` was 265 to 268 °C; that for `O=C(O)c1ccccc1C(=O)N1Cc2cccn2Cc2ccccc21` was 210 to 214 °C; that for `CCOC(=O)/C=C(C)/C(F)=C/C=C(C)/C=C/c1c(Cl)cc(OC)c(C)c1C` was 126 to 128 °C. As for `O=C(Nc1cccc(Br)c1)Nc1cc(NC(=O)Nc2cccc(Br)c2)cc(C(=O)O)c1`, the figure is more than 300 °C; as for `COc1ccc(CSc2nnc(-c3ccc4ncsc4c3)o2)cc1`, 134 to 135 °C; as for `O=C(N1CCCC1)C1(Cc2ccccc2)CCN(Cc2ccccc2)CC1`, 129 °C. `COc1cc(Nc2nccc(-c3sc(N4C=CC=NC4)nc3C)n2)ccc1N1CCOCC1` yielded a melting point of 212 to 214 °C. `CN1CCCc2cc(CC3SC(=O)NC3=O)ccc21` (centres undefined): the melting point lay in the range of 122 to 125 °C. Turning to `CCOC(=O)CCCOc1ccc(C(N)=O)c(OCC2CCCCC2)c1`, the melting point lay within 98 to 99 °C.

In turn, `COCC(Oc1ccc(-n2nnc3cc(C(F)(F)F)ccc32)cc1)C(=O)O` (centres undefined) showed a melting point of 139 to 142 °C.

The compound `[N-]=[N+]=NC1CC(n2cc(C(I)=CI)c(=O)[nH]c2=O)OC1COC(c1ccccc1)(c1ccccc1)c1ccccc1` (centres undefined) came in with a melting point of 139 °C. The compound `N#Cc1cccc(COc2ccc3ccccc3c2)c1` gave a melting point of 60 to 61 °C. The value for `CCc1nc(C(F)(F)F)c(CN(C(=O)C2CCCc3c(O)cccc32)c2ccc(C(C)C)nc2)s1` (centres undefined) was 164 °C. In turn, `Cc1ccc(Cl)cc1NC(=S)NCC(N)=O` came in with a melting point of 162 to 164 °C. `Cc1ccn(-c2ncc(C(=O)N3Cc4cccn4Cc4ccccc43)c(C(F)(F)F)n2)n1`: the melting point is 202 to 204 °C. Consider `Nc1ccc(OCC(O)CO)c(O)c1` (centres undefined), for which the melting point turned out to be 141 °C. The value for `c1cc(-c2ccnc3nc(N4CCNCC4)nn23)ccn1` was 147 to 149 °C.

In turn, `C=C1c2ccccc2CC(=O)Cc2ccccc21` displayed a melting point of 68 to 70 °C. `CCOC(=O)C1=CC(CF)(CF)Oc2ccc(Cl)cc21`: the melting point was 76 to 78 °C. As for `CCN(CC)C(C(C(=O)C(C)(C)C)n1cncn1)C(Cl)(Cl)Cl` (centres undefined), the figure is 103 to 110 °C; as for `N#Cc1c[nH]c2c(NS(=O)(=O)c3ccc(N)nc3)cccc12`, more than 300 °C; as for `CN(C)CCOc1nc(NCc2cccs2)nc(Nc2cccc(C(F)(F)F)c2)n1`, 51 to 53 °C. As for `CN1CC(C(Oc2ccccc2[N+](=O)[O-])c2ccccc2)OCC1=O` (centres undefined), the figure is 192 to 195 °C; as for `Cc1noc(NS(=O)(=O)c2ccccc2-c2ccc(-c3ncco3)cc2CN(Cc2ccccc2)CC(F)(F)F)c1C`, 50 to 60 °C; as for `O=c1c(CCCc2nccs2)cc2cccnc2n1-c1cccc([N+](=O)[O-])c1`, 198 to 199 °C. `CC1(C)CNc2cc3[nH]c(-c4ccncc4)nc3cc21` showed a melting point of 147 to 149 °C. Regarding `O=[N+]([O-])c1ccc(C=C2c3ccccc3C=Cc3ccccc32)cc1`, the melting point stood at 152 °C.

Take `CCOC(=O)COc1c(Br)cc(-c2cccc3sc4ccccc4c23)cc1Br`: the melting point lay in the range of 140 to 142 °C.

Compound `CCN1C(=O)CNCc2cc(OC)c(N)cc21` gave a melting point of 69 to 73 °C. `Cc1ccc2cc(C(=O)NCCSC(c3ccccc3)(c3ccccc3)c3ccccc3)[nH]c2c1NS(=O)(=O)c1cccs1` yielded a melting point of 245 to 246 °C. The value for `O=c1c(-c2ccccc2)c(Cn2cnc3ccccc32)oc2ccccc12` was 186 to 191 °C; that for `CCn1c(=O)c2c(nc(C=Cc3cc(OC)ccc3S(N)(=O)=O)n2C)n(CC)c1=O` was 236 to 237 °C; that for `COC(=O)CCCc1cc2nc(Cl)ccc2n1S(=O)(=O)c1cccc(-c2cscn2)c1` was 147 to 148 °C. `O=[N+]([O-])c1ccc2nc3c(nc2c1)N1CCCCC1CO3` (centres undefined) displayed a melting point of 226 to 229 °C.

With `CC1(C)CN(c2ccncc2)c2ccc(S(=O)(=O)c3ccccc3)cc2O1`, the melting point lay in the range of 113 to 120 °C. As for `Nc1cc(C(=O)N2CCC2)cc(C(F)(F)F)c1`, the figure is 154 °C; as for `CC(=O)Nc1nc(N)nnc1-c1cccc(Cl)c1Cl`, 250 to 252 °C. Consider `CCCCc1nc2c(N)nc3ccccc3c2n1CCN`, for which the melting point was 196 to 199 °C. As for `CSc1ccc(C2=C(c3ccccc3)C(=O)OC2)cc1F`, the figure is 159 to 160 °C.

`NC(=S)/C=C1\CCc2ccc(F)cc21` had a melting point of 178 to 179 °C.

One may read the melting point as the temperature of the solid-liquid transition.
